# The supplement of paper PMC11061612
# Tests used:
# Assay in all cases: combination Emax (second highest fraction inhibited in the dose matrix, 72 h); higher = more inhibition; extreme values may be limits of the assay
# [1] = tested on: U-87-MG (Glioblastoma)
# In short: (§1)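 After 24 hours at 37°C and 5% CO2 in 1536-well plates, cells in DMEM/F12 or RPMI plus 10% FBS received two-drug dose matrices for 72 hours. Viability came from CellTiter-Glo 2.0 luminescence and was scaled as inhibition, anchored at 0 by vehicle wells and at 1 by blank wells. Combination Emax is taken as the second-highest inhibition in the matrix, and Bliss excess as the observed combination effect less EA + EB − EA·EB, with EA and EB the single-agent effects.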
# [2] = tested on: SCC-9 (Oral Cavity Carcinoma)
# In short: as §1
# [3] = tested on: EBC-1 (Squamous Cell Lung Carcinoma)
# In short: as §1
# [4] = tested on: HC-1 (Other Blood Carcinomas)
# In short: as §1
# [5] = tested on: JHH-7 (Hepatocellular Carcinoma)
# In short: as §1
# [6] = tested on: OVISE (Ovarian Carcinoma)
# In short: as §1
# [7] = tested on: NCI-H2347 (Lung Adenocarcinoma)
# In short: as §1
# [8] = tested on: A704 (Kidney Carcinoma)
# In short: as §1
# [9] = tested on: KLE (Endometrial Carcinoma)
# In short: as §1
# [10] = tested on: KINGS-1 (Low Grade Glioma)
# In short: as §1
# [11] = tested on: NCI-H322M (Lung Adenocarcinoma)
# In short: as §1
# [12] = tested on: HuP-T3 (Pancreatic Carcinoma)
# In short: as §1
# [13] = tested on: EW-18 (Ewing's Sarcoma)
# In short: as §1
# [14] = tested on: NCI-H2405 (Lung Adenocarcinoma)
# In short: as §1
# [15] = tested on: VMRC-LCD (Lung Adenocarcinoma)
# In short: as §1
# [16] = tested on: GOTO (Neuroblastoma)
# In short: as §1
# [17] = tested on: ASH-3 (Thyroid Gland Carcinoma)
# In short: as §1
# [18] = tested on: SCC-3 (B-Cell Non-Hodgkin's Lymphoma)
# In short: as §1
# [19] = tested on: PFSK-1 (Other Solid Carcinomas)
# In short: as §1
# [20] = tested on: BT-20 (Breast Carcinoma)
# In short: as §1
Compound,combination Emax [1],combination Emax [2],combination Emax [3],combination Emax [4],combination Emax [5],combination Emax [6],combination Emax [7],combination Emax [8],combination Emax [9],combination Emax [10],combination Emax [11],combination Emax [12],combination Emax [13],combination Emax [14],combination Emax [15],combination Emax [16],combination Emax [17],combination Emax [18],combination Emax [19],combination Emax [20]
"COc1nnc2ccc(N3CCC(c4ccc(OCCN5CCN(C)C(=O)[C@H]5C)cc4)CC3)nn12 [AZD5153] + Cc1c2c(nn1C)CSCc1cc(n(C)n1)CSc1cc(c3ccccc3c1)OCCCc1c(C(=O)O)n(C)c3c-2c(Cl)ccc13 [AZD5991] (first compound max 1 µM, 7x7, partner max 1 µM)",0.559,0.601,0.862,0.753,0.291,0.633,0.39,0.545,0.668,0.186,0.539,0.534,0.938,0.36,0.925,0.919,0.88,0.997,0.982,0.787
"Cc1c2c(nn1C)CSCc1cc(n(C)n1)CSc1cc(c3ccccc3c1)OCCCc1c(C(=O)O)n(C)c3c-2c(Cl)ccc13 [AZD5991] + Cn1cnc2c(F)c(Nc3ccc(Br)cc3Cl)c(C(=O)NOCCO)cc21 [Selumetinib] (first compound max 1 µM, 7x7, partner max 3 µM)",0.372,0.654,0.827,0.402,0.278,0.291,0.41,0.306,0.287,0.354,0.566,0.462,0.927,0.483,0.174,0.714,0.368,0.639,1,0.763
"CN(CCO)CC[C@H](CSc1ccccc1)Nc1ccc(S(=O)(=O)NC(=O)c2ccc(N3CCC([C@@H](O)c4ccccc4-c4ccc(Cl)cc4)CC3)cc2)cc1S(=O)(=O)C(F)(F)F [AZD4320] + CCN(CCO)CCCOc1ccc2c(Nc3cc(CC(=O)Nc4cccc(F)c4)[nH]n3)ncnc2c1 [AZD2811] (first compound max 1 µM, 7x7, partner max 1 µM)",0.253,0.333,0.931,0.969,0.538,0.828,0.476,0.563,0.297,0.498,0.0611,0.128,0.888,0.137,0.582,0.649,0.619,0.316,0.319,0.653
"CN(C)CCCOc1ccc(-c2ccc3ncc4c(c3c2)n(C2CCOCC2)c(=O)n4C)cn1 [AZD0156] + O=C(c1cc(Cc2n[nH]c(=O)c3ccccc23)ccc1F)N1CCN(C(=O)C2CC2)CC1 [Olaparib] (first compound max 3 µM, partner max 3 µM)",0.297,0.262,0.267,0.527,0.339,0.306,0.268,0.247,0.334,0.176,0.357,0.223,0.61,0.256,0.0443,0.306,0.194,0.687,0.424,0.157
"CC(=O)c1c(C)c2cnc(Nc3ccc(N4CCNCC4)cn3)nc2n(C2CCCC2)c1=O [Palbociclib] + Cc1c2c(nn1C)CSCc1cc(n(C)n1)CSc1cc(c3ccccc3c1)OCCCc1c(C(=O)O)n(C)c3c-2c(Cl)ccc13 [AZD5991] (first compound max 10 µM, 7x7, partner max 1 µM)",0.29,0.217,0.36,0.654,0.203,0.25,0.148,0.595,0.181,0.258,0.501,0.266,0.899,0.269,0.337,0.802,0.398,0.626,0.969,0.916
"CN(CCO)CC[C@H](CSc1ccccc1)Nc1ccc(S(=O)(=O)NC(=O)c2ccc(N3CCC([C@@H](O)c4ccccc4-c4ccc(Cl)cc4)CC3)cc2)cc1S(=O)(=O)C(F)(F)F [AZD4320] + C1CN(CCC1(C(=O)N[C@@H](CCO)C2=CC=C(C=C2)Cl)N)C3=NC=NC4=C3C=CN4 [Capivasertib] (first compound max 1 µM, 7x7, partner max 3 µM)",0.311,0.21,0.935,0.616,0.391,0.89,0.362,0.392,0.206,0.49,0.0734,0.118,0.875,0.224,0.0578,0.378,0.59,0.257,0.568,0.84
"COc1nnc2ccc(N3CCC(c4ccc(OCCN5CCN(C)C(=O)[C@H]5C)cc4)CC3)nn12 [AZD5153] + C[C@@H]1COCCN1C2=NC(=NC(=C2)C3(CC3)[S@](=N)(=O)C)C4=C5C=CNC5=NC=C4 [AZD6738] (first compound max 1 µM, 7x7, partner max 10 µM)",0.698,0.45,0.798,0.713,0.324,0.754,0.525,0.681,0.737,0.281,0.865,0.705,0.781,0.511,0.921,0.979,0.852,0.986,0.648,0.399
"CN(CCO)CC[C@H](CSc1ccccc1)Nc1ccc(S(=O)(=O)NC(=O)c2ccc(N3CCC([C@@H](O)c4ccccc4-c4ccc(Cl)cc4)CC3)cc2)cc1S(=O)(=O)C(F)(F)F [AZD4320] + C[C@@H]1COCCN1C2=NC(=NC(=C2)C3(CC3)[S@](=N)(=O)C)C4=C5C=CNC5=NC=C4 [AZD6738] (first compound max 1 µM, 7x7, partner max 10 µM)",0.501,0.466,0.935,0.958,0.524,0.961,0.656,0.809,0.608,0.53,0.915,0.706,0.897,0.415,0.611,0.909,0.662,0.941,0.781,0.765
"NC1(C(=O)N[C@@H](CCO)c2ccc(Cl)cc2)CCN(c2ncnc3[nH]ccc23)CC1 [Capivasertib] + CC(C)n1c(=O)n(C)c2cnc3cc(F)c(-c4ccc(OCCCN5CCCCC5)nc4)cc3c21 [AZD1390] (first compound max 10 µM, 7x7, partner max 0.3 µM)",0.578,0.26,0.322,0.508,0.315,0.387,0.196,0.314,0.43,0.374,0.313,0.163,0.596,0.274,0.0998,0.433,0.384,0.216,0.462,0.733
"Cn1cnc2c(F)c(Nc3ccc(Br)cc3Cl)c(C(=O)NOCCO)cc21 [Selumetinib] + C[C@@H]1COCCN1C2=NC(=NC(=C2)C3(CC3)[S@](=N)(=O)C)C4=C5C=CNC5=NC=C4 [AZD6738] (first compound max 10 µM, 7x7, partner max 10 µM)",0.457,0.463,0.934,0.793,0.311,0.54,0.382,0.391,0.442,0.292,0.88,0.517,0.696,0.401,0.732,0.946,0.607,0.933,0.595,0.576
"CC1(C)CCC(CN2CCN(c3ccc(C(=O)NS(=O)(=O)c4ccc(NCC5CCOCC5)c([N+](=O)[O-])c4)c(Oc4cnc5[nH]ccc5c4)c3)CC2)=C(c2ccc(Cl)cc2)C1 [Venetoclax] + C[C@@H](Nc1cc(F)cc(F)c1)c1cc(C(=O)N(C)C)cc2c(=O)cc(N3CCOCC3)oc12 [AZD8186] (first compound max 1 µM, 7x7, partner max 3 µM)",0.44,0.193,0.209,0.616,0.0915,0.238,0.189,0.429,0.41,0.332,0.237,0.119,0.599,0.0892,0.093,0.305,0.332,0.207,0.194,0.0992
"Cc1nc(Nc2ncc(C(=O)Nc3c(C)cccc3Cl)s2)cc(N2CCN(CCO)CC2)n1 [Dasatinib] + CC(=O)Nc1cccc(-n2c(=O)n(C3CC3)c(=O)c3c(Nc4ccc(I)cc4F)n(C)c(=O)c(C)c32)c1 [Trametinib] (first compound max 2 µM, 7x7, partner max 1 µM)",0.384,0.856,0.997,0.494,0.306,0.828,0.716,1,0.724,0.465,0.721,0.868,0.13,0.712,0.163,0.398,0.855,0.358,0.338,0.68
